Results as given in article PMC11725581, “Developing novel Lin28 inhibitors by computer aided drug design” (Cell Death Discovery, 2025).

Tests used:
[1] = molecular target: T1, Lin28a protein (Homo sapiens, UniProt Q9H9Z2); experiment: EMSA with Lin28a protein and pre-let-7d probe; format: binding; details: same EMSA conditions
T1 sequence (Q9H9Z2 1-209): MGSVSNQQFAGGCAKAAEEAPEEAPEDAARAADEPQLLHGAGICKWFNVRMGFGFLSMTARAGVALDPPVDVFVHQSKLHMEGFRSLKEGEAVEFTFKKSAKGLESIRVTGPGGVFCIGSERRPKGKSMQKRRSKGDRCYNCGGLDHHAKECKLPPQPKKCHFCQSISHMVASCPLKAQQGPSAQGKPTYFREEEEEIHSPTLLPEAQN
Method: (§1) We next validated the newly developed compounds using EMSA, a non-florescent-based assay to detect Lin28b ZKD:pre-let-7 complex formation. Similar to the FP assays, we first optimized the experimental conditions by titrating: (1) IRDye800-labeled pre-let-7d RNA probe, (2) Lin28b ZKD protein, and (3) non-labeled pre-let-7 probe as a competitor (Fig. 2C). For the validation experiments, 1 μM Lin28 ZKD and 10 nM of IRDye800-labeled pre-let-7d probe were mixed with each candidate compound. Compounds C1632 and Ln15 were used as control Lin28 inhibitors, respectively. […] Regardless, we use these two biochemical assays to shortlist the most promising compounds for further characterization. […] While our inhibitors directly target the Lin28 ZKD, it is unclear whether C1632 may bind to domains other than the ZKD or allosterically disrupt Lin28’s capacity to bind its RNA substrates.
EMSA followed the standard protocols we published. An IRDye800CWN-labeled pre-Let-7d RNA probe (5’-IRD800CWN-[…]-3’) was purchased from IDT (Coralville, IA, USA). Lin28a or Lin28b proteins were incubated with 300 nM of probe in a standard 20 uL EMSA reaction in a reaction buffer containing 20 mM HEPES-NaOH, pH 7.4, 2 mM DTT, 3 mM MgCl2, 0.05% NP-40, protease inhibitors, and 0.1 ug poly[dI:dC]. After incubation for 30 min at 37 °C, reactions were loaded onto 4% non-denatured polyacrylamide gel in 0.5× TBE buffer. […]

[2] = tested on: DuNE spheroids; experiment: DuNE 3D spheroid growth (Incucyte); format: cell-based; details: 0-100 μM, 0-6 days, read-out: concentration to achieve 50% spheroid growth inhibition
Source text: (§2) CSCs have characteristic tumorigenic, self-renewal, and differentiation properties. The self-renewal ability is hijacked by CSCs that makes them both tumorigenic and capable of sustaining long-term tumor growth, which can be evaluated by 3D spheroid and colony formation assays. We established a DuNE spheroid model in which DuNE cells formed 3D spheroids in 96-well plates (Figure S3). By integrating this 3D culture with the Incucyte live-cell imaging system, we quantified the sizes of the spheroid growth over 0–6 days to generate a spheroid growth curve. Using this model system, we treated the DuNE spheroids with increasing doses (0–100 μM) of C1632, Ln15, and Ln268 for 0–6 days. […] In addition, classic colony formation assays were used to measure the stemness in the DuNE model. Colony formation counts, which were ~50 under vehicle treatment after 14 days, decreased by 22% in C1632-treated plates, and by 75% and 96% in the Ln15 and Ln268 treated plates, respectively (Fig. 4D).
For a spheroid generation, 1000 cells/well were seeded in 96-well ULA round-bottomed plates (Corning, Amsterdam) using a multichannel pipette. 3D multicellular spheroids were spontaneously generated after 24 h culture. Plates were incubated for 6 days at 37 °C, 5% CO2, and 95% humidity. DuNE and Du145 cells were cultured in DMEM with 10% FBS. Fully automated image analysis of tumor spheroids was carried out with the Incucyte® S3 Live-Cell Analysis System. The size and shape of multicellular spheroids were analyzed by using the Incucyte® Spheroid Analysis Software Module.

[3] = tested on: DuNE cells; experiment: Colony formation assay, DuNE cells; format: cell-based; details: 14 days, vs vehicle (~50 colonies)
Source text: as §2
In the colony formation assays, cancer cells were seeded in 0.7% soft agar in a 6-well plate, with a 1% soft agar bottom base coating. Cells were allowed to grow for 14 days to form colonies. Colonies were stained with crystal violet and imaged by stitching 5X field images together to capture the entire well (Zeiss light microscope [Carl Zeiss]). Colony numbers were counted according to their diameters (100-300um or >300um). Three independent biological replicates were performed for all the assays.

[4] = tested on: cancer cells; set-up: method as in PMID 27548809; details: cited from earlier work
[5] = molecular target: T2, Lin28b ZKD (Homo sapiens, UniProt Q6ZN17); experiment: EMSA, Lin28b ZKD:pre-let-7d complex formation; format: binding; details: 1 μM Lin28 ZKD, 10 nM IRDye800-labeled pre-let-7d probe
T2 sequence (Q6ZN17 127-166 limits assumed): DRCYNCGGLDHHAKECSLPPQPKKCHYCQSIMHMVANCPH
Method: as §1
EMSA followed the standard protocols we published. An IRDye800CWN-labeled pre-Let-7d RNA probe (5’-IRD800CWN-[…]-3’) was purchased from IDT (Coralville, IA, USA). Lin28a or Lin28b proteins were incubated with 300 nM of probe in a standard 20 uL EMSA reaction in a reaction buffer containing 20 mM HEPES-NaOH, pH 7.4, 2 mM DTT, 3 mM MgCl2, 0.05% NP-40, protease inhibitors, and 0.1 ug poly[dI:dC]. After incubation for 30 min at 37 °C, reactions were loaded onto 4% non-denatured polyacrylamide gel in 0.5× TBE buffer. The RNA oligo bands were visualized by using the Li-Cor Odyssey 9120 Infrared Imaging System.

[6] = molecular target: T2, Lin28b ZKD; experiment: Fluorescence polarization (FP) assay, Lin28b ZKD:pre-let-7d interaction; format: binding; details: 10 nM pre-let-7d probe, 1 μM Lin28b ZKD
Method: We conducted two biochemical assays, FP and EMSA, to validate the predicted compounds. To optimize the FP assays, we performed a series of titrations using: (1) FAM-labeled pre-let-7d RNA probe, (2) Lin28b ZKD protein, and (3) non-labeled pre-let-7 probe as a competitor (Fig. 2A). These assays yielded the optimal concentrations required for the subsequent FP validation assays, namely 10 nM for the pre-let-7d probe and 1 μM for Lin28b ZKD protein. The FP signal from the free probe was set as 0%, while the signal from the probe-ZKD complex in the absence of compounds was set as 100%. C1632 was used as a control Lin28 inhibitor (Fig. 2B). […] Since the docking pocket is almost identical between Lin28a and Lin28b homologs, we repeated the FP assays using Lin28a ZKD (Figure S2).
The fluorescein amidites (FAM)-tagged pre-Let-7d probe with the sequence of […] was purchased from Integrated DNA Technologies (IDT). The probe at the concentrations ranging from 1 nM to 50 uM was incubated with Lin28B (ZKD) or Lin28 (CSD+ZKD) to a final volume of 30 uL at room temperature for 20 min. To read the fluorescence, a TECAN 500 machine was used. Fluorescence polarization was calculated using the following equation:
P=(Fparrallel−Fperpendicular)/(Fparrallel+FperpendicularP)
where P is the fluorescence polarization reading, F parallel is the fluorescence intensity acquired from the parallel excitation plane, and F perpendicular is the fluorescence intensity acquired from the perpendicular direction of the excitation plane. The total fluorescence intensity is estimated using the following equation:
F=Fparallel+2FperpendicularF.
All the raw FP signal data from the TECAN 500 FP results were analyzed using Prism 8.0 (GraphPad, San Diego, CA, USA); normalized curves were plotted and IC50 values were estimated. All FP data were repeated three to five times.
Figure S1. Lin28b ZKD protein was incubated with the indicated compounds at the concentration of 0, 0.1, 0.2, 0.5, 1, 2, 5, 10, 20, 50, 100, and 200uM. FP signals were measured and plotted relative to that from vehicle.

[7] = molecular target: T2, Lin28b ZKD; experiment: 1H-15N HSQC NMR of Lin28b-ZKD with ligand; format: binding; details: ligand added in 20:1 molar ratio
Source text: Given that Ln268 is derived from the parent compound Ln15, we wanted to assess whether the improved properties of Ln268 were linked to a potential difference in its interaction with Lin28 ZKD. To this end, we collected ^1H-^15N HSQC spectra of Lin28b-ZKD, Lin28b-ZKD + Ln15, and Lin28b-ZKD + Ln268. RNA binding proteins (RBPs) commonly have binding pockets that are intrinsically disordered, as evidenced by the narrow chemical shift dispersion observed in the HQSC of Lin28b-ZKD alone (Fig. 3D). Addition of either Ln15 or Ln268 led to changes in the chemical shifts of ca. 20 residues, consistent with the change in conformation of the Lin28b-ZKD segment which encompasses residues 137–160 (three of which are prolines) upon RNA binding (Fig. 3E). Although many of the peak shifts are the same for the Ln15 and Ln268 containing samples, there are around 7 resonances where the peaks disappear in the case of Ln268.
NMR spectra were recorded at 5 °C on a Bruker Avance III 850 MHz spectrometer, equipped with a TCI cryoprobe. ^1H-^15N HSQC experiments were recorded on ^13C/^15N-labeled Lin28b ZKD (230 μM), in 20 mM d-Tris-HCl (pH 7.5), 100 mM NaCl, 1 mM d-DTT, 0.02% NaN3, 0.25 mM ZnCl2 + 1 mM IDA, and 10% D2O, to which unlabeled Ln15 and Ln268 was added, respectively. The time domain matrix was 4k by 512. Four scans were acquired per t1 increment. Spectra were processed and plotted using Topspin to a final size of 8k by 1k. For the overlays, the levels were set to the same base level in all cases, with a multiplication factor of 1.1.

Row | inhibition of Lin28a protein (EMSA) [1] | inhibition of Lin28b ZKD:pre-let-7d complex formation (EMSA) [5] | IC50 [6] | residues of Lin28b-ZKD with changed chemical shifts (1H-15N HSQC) [7] | SMILES | IC50 [2] | decrease of colony formation counts [3] | concentration needed for inhibitory effects on cancer cells [4]
1 | did not observe any obvious inhibition | did not observe any obvious inhibition |  |  | CC(=O)N(C)c1cccc(-c2ccc3nnc(C)n3n2)c1 [C1632, reference compound] | 100 µM | 22% | exceeding 100 μM
2 |  |  | 9 µM | ca. 20 residues | O=c1[nH]c(Nc2ccccc2O)cs1 [Ln15] | 50 µM | 75% | 
